Assay results: US20220096399A1 (Berg LLC, priority 2012, published 2022)
“Also recorded” adds a separate entry of the source. Like-named read-outs stand apart in the source and are kept apart here.

Assays:
[1] = Phase I trial pharmacokinetic analysis (serial serum collection)
Protocol: Pharmacokinetic (PK) information was calculated with serial serum collection data. Tumor response was determined using RECIST 1.1. Clinical benefit (decreased pain, increased quality of life) was assessed by the treating physician.
Pharmacokinetic and pharmacodynamic analyses were performed during the study as well.

[2] = for Maximum tolerated dose (MTD): first interim analysis, highest dose 104.3 mg/kg per dose
Protocol: An interim analysis was performed on the study participants.
(§1) A standard 3×3 phase I dose-escalation design was used with patients (n=31) with advanced solid malignancies.
Pharmacokinetic (PK) information was calculated with serial serum collection data. Tumor response was determined using RECIST 1.1.

[3] = tested on: advanced solid malignancies
Protocol: The study was also performed to examine preliminary efficacy (using RECIST 1.1 criteria), overall clinical benefit, and progression free survival. An interim analysis was performed on the study participants.
as §1
Tumor response was determined using RECIST 1.1.
An exploratory assessment of antitumor activity was undertaken during the study using modified Response Criteria in Solid Tumors (RECIST) v1.1. Tumors were measured at baseline or screening, at the end of Cycle 1 and Cycle 2 treatments, and once every 2 treatment cycles (2 months) thereafter in the absence of clinically rapid progression of disease.

[4] = Example 4, of 39 evaluable subjects
[5] = person, pleomorphic fibrosarcoma, 6 cycles, 22.5 to 58.7 mg/kg/dose

COC1=C(OC)C(=O)C(C/C=C(\C)CC/C=C(\C)CC/C=C(\C)CC/C=C(\C)CC/C=C(\C)CC/C=C(\C)CC/C=C(\C)CC/C=C(\C)CC/C=C(\C)CCC=C(C)C)=C(C)C1=O [CoQ10, Coenzyme Q10]
Dose-proportionality of AUC ([1]; C31510 formulation, FIG. 5): not strictly proportional to dose | Dependence of t1/2 on dose ([1]; human, IV infusion): little or no dependence on dose | Linearity of pharmacokinetics ([1]; human, IV infusion): linear | Maximum tolerated dose (MTD) ([2]; 104.3 mg/kg): has not been identified; also recorded: had not been reached | Maximum tolerated dose (MTD) ([2]; listed as coenzyme Q10, 104.3 mg/kg): no MTD had been reached | Patients reporting headache during first week of treatment (%) ([2]; in vivo): 29.0% | Patients reporting headache during first week of treatment (number) ([2]; in vivo): Nine | Patients with Grade I asymptomatic elevation of INR (%) ([2]; in vivo): 74.1% | Patients with Grade I asymptomatic elevation of INR (number) ([2]; in vivo): 23 patients | Patients with Grade II INR elevation of greater than 2.0 (%) ([2]; in vivo): 45.1% | Patients with Grade II INR elevation of greater than 2.0 (number) ([2]; in vivo): 14 patients | Primary Reason for Discontinuation: Intolerable Toxicity, % ([2]; in vivo): 8% | Subjects with INR greater than 3 (%) ([2]; in vivo): 12.9% | Subjects with INR greater than 3 (number) ([2]; in vivo): four | Subjects with INR greater than 5 (%) ([2]; in vivo): 6% | Subjects with INR greater than 5 (number) ([2]; in vivo): two | Best Response: Unevaluable, % ([3]; 50 subjects): 20% | Best Response: Unknown, % ([3]; 50 subjects): 2% | Primary Reason for Discontinuation: Progressive Disease, % ([3]; 50 subjects): 52% | Best Response: Complete Response, % ([3]; 50 subjects, RECIST v1.1): 0% | Best Response: Partial Response, % ([3]; 50 subjects, RECIST v1.1): 2% | Best Response: Progressive Disease, % ([3]; 50 subjects, RECIST v1.1): 30% | Best Response: Stable Disease, % ([3]; 50 subjects, RECIST v1.1): 46% | Best outcome of partial response (number of subjects) [3, 4]: 2 subjects | Best outcome of progressive disease (number of subjects) [3, 4]: 15 subjects | Best outcome of stable disease (number of subjects) [3, 4]: 22 subjects | Average time on treatment of patients with clinical benefit ([3]; first interim analysis): 16 weeks | Median Progression Free survival ([3]; first interim analysis): 2 months | Patients with a clinical benefit (%) ([3]; first interim analysis, n=31): 61.2% | Patients with a clinical benefit (number) ([3]; first interim analysis, n=31): Nineteen | Average time subjects remained on treatment ([3]; first interim analysis, treatment until clinical progression): 90 days | Progression free survival and/or clinical benefit ([3]; interim data summary): a majority of patients enrolled in this trial had an increased progression free survival and/or clinical benefit | Tumor responses observed ([3]; interim data summary): A partial response and minor response were observed | Evaluable subjects with clinically relevant response by RECIST 1.1 (at least stable disease), number ([3]; of 40 evaluable subjects): 24 subjects | Evaluable subjects with clinically relevant response by RECIST 1.1 (at least stable disease), % ([3]; of 40 evaluable subjects who completed at least one treatment cycle): 60% | Duration of partial response ([3]; one subject with sarcoma of the extremity): at least 6 months | Individual outcome: tumor lesion (CT) ([3]; person, metastatic myxoid liposarcoma, 58.6 mg/kg/dose, four treatment cycles): resolution of their anterior mediastinal lesion | Individual outcome: tumor response ([3]; person, pleomorphic fibrosarcoma with bone metastasis, 6 cycles, 22.5 to 58.7 mg/kg/dose): minor response | Individual outcome: pain [3, 5]: significant improvement in pain | Individual outcome: tumor size (CT) [3, 5]: Tumor shrinkage was also observed | Individual outcome: duration of response ([3]; person, pleomorphic fibrosarcoma, 22.5 to 58.7 mg/kg/dose): over 10 months
